Reference: patent US20210045385A1, “PYRIDAZINONE-SUBSTITUTED KETOXIMES AS HERBICIDES” (FMC Corporation, priority 2018, published 2021)

Columns and labels:
Assay type in all cases: in vivo
[1] = test system: Italian ryegrass (Lolium multiflorum); assay: Test A postemergence, visual plant response rating; details: for Ryegrass, Italian plant response rating (0 to 100 scale): 500 g ai/ha, postemergence, 0 is no effect, 100 is complete control; for Ryegrass, Italian plant response rating: Postemergence, 125 g ai/ha, 0 to 100 scale (0 no effect, 100 complete control)
In short: (§1)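 Formulated in a non-phytotoxic solvent mixture including surfactant, each test chemical was sprayed onto the soil surface after sowing, or onto seedlings 2 to 10 cm high. Roughly 10 days later, plants were compared with untreated controls and rated for injury from 0 (no effect) to 100 (complete control).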

[2] = test system: wheat (Triticum aestivum); assay: Test A postemergence, visual plant response rating; details: for Wheat plant response rating (0 to 100 scale): 500 g ai/ha, postemergence, 0 is no effect, 100 is complete control; for Wheat plant response rating: Postemergence, 125 g ai/ha, 0 to 100 scale (0 no effect, 100 complete control)
In short: as §1

[3] = test system: blackgrass (Alopecurus myosuroides); assay: Test A postemergence, visual plant response rating; details: for Blackgrass plant response rating (0 to 100 scale): 500 g ai/ha, postemergence, 0 is no effect, 100 is complete control; for Blackgrass plant response rating: Postemergence, 125 g ai/ha, 0 to 100 scale (0 no effect, 100 complete control)
In short: as §1

[4] = test system: barnyardgrass (Echinochloa crus-galli); assay: Test A postemergence, visual plant response rating; details: for Barnyardgrass plant response rating (0 to 100 scale): 500 g ai/ha, postemergence, 0 is no effect, 100 is complete control; for Barnyardgrass plant response rating: Postemergence, 125 g ai/ha, 0 to 100 scale (0 no effect, 100 complete control)
In short: as §1

corn (Zea mays) = assay: Test A postemergence, visual plant response rating; details: for Corn plant response rating (0 to 100 scale): 500 g ai/ha, postemergence, 0 is no effect, 100 is complete control; for Corn plant response rating: Postemergence, 125 g ai/ha, 0 to 100 scale (0 no effect, 100 complete control)
In short: as §1

[5] = test system: ragweed (common ragweed, Ambrosia elatior); assay: Test A postemergence, visual plant response rating; details: for Ragweed plant response rating (0 to 100 scale): 500 g ai/ha, postemergence, 0 is no effect, 100 is complete control; for Ragweed plant response rating: Postemergence, 125 g ai/ha, 0 to 100 scale (0 no effect, 100 complete control)
In short: as §1

[6] = test system: galium (catchweed bedstraw, Galium aparine); assay: Test A postemergence, visual plant response rating; details: for Galium plant response rating (0 to 100 scale): 500 g ai/ha, postemergence, 0 is no effect, 100 is complete control; for Galium plant response rating: Postemergence, 125 g ai/ha, 0 to 100 scale (0 no effect, 100 complete control)
In short: as §1

kochia (Kochia scoparia) [7] = assay: Test A postemergence, visual plant response rating; details: for Kochia plant response rating (0 to 100 scale): 500 g ai/ha, postemergence, 0 is no effect, 100 is complete control; for Kochia plant response rating: Postemergence, 125 g ai/ha, 0 to 100 scale (0 no effect, 100 complete control)
In short: as §1

[8] = test system: pigweed (Amaranthus retroflexus); assay: Test A postemergence, visual plant response rating; details: for Pigweed plant response rating (0 to 100 scale): 500 g ai/ha, postemergence, 0 is no effect, 100 is complete control; for Pigweed plant response rating: Postemergence, 125 g ai/ha, 0 to 100 scale (0 no effect, 100 complete control)
In short: as §1

[9] = test system: foxtail, green (green foxtail, Setaria viridis); assay: Test A postemergence, visual plant response rating; details: for Foxtail, Green plant response rating (0 to 100 scale): 500 g ai/ha, postemergence, 0 is no effect, 100 is complete control; for Foxtail, Green plant response rating: Postemergence, 125 g ai/ha, 0 to 100 scale (0 no effect, 100 complete control)
In short: as §1

[10] = test system: Italian ryegrass (Lolium multiflorum); assay: Test A preemergence, visual plant response rating; details: approx. 10 days
In short: as §1

[11] = test system: barnyardgrass (Echinochloa crus-galli); assay: Test A preemergence, visual plant response rating; details: approx. 10 days
In short: as §1

[12] = test system: ragweed (common ragweed, Ambrosia elatior); assay: Test A preemergence, visual plant response rating; details: approx. 10 days
In short: as §1

kochia (Kochia scoparia) [13] = assay: Test A preemergence, visual plant response rating; details: approx. 10 days
In short: as §1

[14] = test system: pigweed (Amaranthus retroflexus); assay: Test A preemergence, visual plant response rating; details: approx. 10 days
In short: as §1

[15] = test system: foxtail, green (green foxtail, Setaria viridis); assay: Test A preemergence, visual plant response rating; details: approx. 10 days
In short: as §1

rice (Oryza sativa) = assay: Test B flooded paddy test, visual plant response rating; details: 250 g ai/ha, Flood, applied to paddy water, 2-leaf stage, evaluated after 13 to 15 days
In short: (§2)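 Seedlings at 2 leaves; compound into paddy water (3 cm flood, maintained); 13–15 d greenhouse; visual score relative to controls.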

[16] = test system: barnyardgrass (Echinochloa crus-galli); assay: as above; details: 250 g ai/ha, Flood, applied to paddy water, 2-leaf stage, evaluated after 13 to 15 days
In short: as §2

[17] = test system: sedge, umbrella (small-flower umbrella sedge, Cyperus difformis); assay: as above; details: 250 g ai/ha, Flood, applied to paddy water, 2-leaf stage, evaluated after 13 to 15 days
In short: as §2

[18] = test system: ducksalad (Heteranhera limosa); assay: as above; details: 250 g ai/ha, Flood, applied to paddy water, 2-leaf stage, evaluated after 13 to 15 days
In short: as §2

SMILES	Ryegrass, Italian plant response rating (0 to 100 scale) [1]	Ryegrass, Italian plant response rating [1]	Wheat plant response rating (0 to 100 scale) [2]	Wheat plant response rating [2]	Blackgrass plant response rating (0 to 100 scale) [3]	Blackgrass plant response rating [3]	Barnyardgrass plant response rating (0 to 100 scale) [4]	Barnyardgrass plant response rating [4]	Corn plant response rating (0 to 100 scale) (corn (Zea mays))	Corn plant response rating (corn (Zea mays))	Ragweed plant response rating (0 to 100 scale) [5]	Ragweed plant response rating [5]	Galium plant response rating (0 to 100 scale) [6]	Galium plant response rating [6]	Kochia plant response rating (0 to 100 scale) (kochia (Kochia scoparia) [7])	Kochia plant response rating (kochia (Kochia scoparia) [7])	Pigweed plant response rating (0 to 100 scale) [8]	Pigweed plant response rating [8]	Foxtail, Green plant response rating (0 to 100 scale) [9]	Foxtail, Green plant response rating [9]	also measured
CO/N=C(/c1cccc(C)c1)c1c(O)c(C2CC2)nn(C)c1=O [Compound 28]	10	0	0	0	40	0	30	0	0	0	40	0	60	20	0	0	40	30	10	0	Ryegrass, Italian plant response rating (0 to 100 scale) ([10]; 125 g ai/ha Preemergence): 0; Ryegrass, Italian plant response rating (0 to 100 scale) ([10]; 500 g ai/ha Preemergence): 0; Barnyardgrass plant response rating (0 to 100 scale) ([11]; 125 g ai/ha Preemergence): 0; Barnyardgrass plant response rating (0 to 100 scale) ([11]; 500 g ai/ha Preemergence): 0; Ragweed plant response rating (0 to 100 scale) ([12]; 125 g ai/ha Preemergence): 0; Ragweed plant response rating (0 to 100 scale) ([12]; 500 g ai/ha Preemergence): 10; Kochia plant response rating (0 to 100 scale) (kochia (Kochia scoparia) [13]; 125 g ai/ha Preemergence): 0; Kochia plant response rating (0 to 100 scale) (kochia (Kochia scoparia) [13]; 500 g ai/ha Preemergence): 0; Pigweed plant response rating (0 to 100 scale) ([14]; 125 g ai/ha Preemergence): 0; Pigweed plant response rating (0 to 100 scale) ([14]; 500 g ai/ha Preemergence): 10; Foxtail, Green plant response rating (0 to 100 scale) ([15]; 125 g ai/ha Preemergence): 0; Foxtail, Green plant response rating (0 to 100 scale) ([15]; 500 g ai/ha Preemergence): 30; Plant response rating, Rice (0 to 100 scale, 0 is no effect, 100 is complete control) (rice (Oryza sativa)): 0; Plant response rating, Barnyardgrass (0 to 100 scale, 0 is no effect, 100 is complete control) [16]: 0; Plant response rating, Sedge, Umbrella (0 to 100 scale, 0 is no effect, 100 is complete control) [17]: 0; Plant response rating, Ducksalad (0 to 100 scale, 0 is no effect, 100 is complete control) [18]: 0
CO/N=C(/c1cc(C)ccc1C)c1c(O)c(C)nn(C)c1=O [Compound 30]	70	40	30	10	80	10	40	20	0	0	60	40	80	60	30	10	50	30	40	0	Ryegrass, Italian plant response rating (0 to 100 scale) ([10]; 125 g ai/ha Preemergence): 20; Ryegrass, Italian plant response rating (0 to 100 scale) ([10]; 500 g ai/ha Preemergence): 50; Barnyardgrass plant response rating (0 to 100 scale) ([11]; 125 g ai/ha Preemergence): 0; Barnyardgrass plant response rating (0 to 100 scale) ([11]; 500 g ai/ha Preemergence): 50; Ragweed plant response rating (0 to 100 scale) ([12]; 125 g ai/ha Preemergence): 20; Ragweed plant response rating (0 to 100 scale) ([12]; 500 g ai/ha Preemergence): 70; Kochia plant response rating (0 to 100 scale) (kochia (Kochia scoparia) [13]; 125 g ai/ha Preemergence): 0; Kochia plant response rating (0 to 100 scale) (kochia (Kochia scoparia) [13]; 500 g ai/ha Preemergence): 30; Pigweed plant response rating (0 to 100 scale) ([14]; 125 g ai/ha Preemergence): 30; Pigweed plant response rating (0 to 100 scale) ([14]; 500 g ai/ha Preemergence): 80; Foxtail, Green plant response rating (0 to 100 scale) ([15]; 125 g ai/ha Preemergence): 0; Foxtail, Green plant response rating (0 to 100 scale) ([15]; 500 g ai/ha Preemergence): 60; Plant response rating, Rice (0 to 100 scale, 0 is no effect, 100 is complete control) (rice (Oryza sativa)): 0; Plant response rating, Barnyardgrass (0 to 100 scale, 0 is no effect, 100 is complete control) [16]: 0; Plant response rating, Sedge, Umbrella (0 to 100 scale, 0 is no effect, 100 is complete control) [17]: 0; Plant response rating, Ducksalad (0 to 100 scale, 0 is no effect, 100 is complete control) [18]: 0
